Tests used:
CYP92B14 [1] = target: T1, CYP92B14 (Sesamum indicum, UniProt A0A2Z5U627); test: inhibition of (+)-sesamolin and (+)-sesaminol formation; assay type: cell-based; settings: substrate (+)-sesamin; also a reaction by-product
T1 construct: full-length ORF expressed in yeast INVSc with sesame CPR1 (GenBank LC209223) as reductase; microsomes or whole yeast cells
T1 sequence (A0A2Z5U627 1-513): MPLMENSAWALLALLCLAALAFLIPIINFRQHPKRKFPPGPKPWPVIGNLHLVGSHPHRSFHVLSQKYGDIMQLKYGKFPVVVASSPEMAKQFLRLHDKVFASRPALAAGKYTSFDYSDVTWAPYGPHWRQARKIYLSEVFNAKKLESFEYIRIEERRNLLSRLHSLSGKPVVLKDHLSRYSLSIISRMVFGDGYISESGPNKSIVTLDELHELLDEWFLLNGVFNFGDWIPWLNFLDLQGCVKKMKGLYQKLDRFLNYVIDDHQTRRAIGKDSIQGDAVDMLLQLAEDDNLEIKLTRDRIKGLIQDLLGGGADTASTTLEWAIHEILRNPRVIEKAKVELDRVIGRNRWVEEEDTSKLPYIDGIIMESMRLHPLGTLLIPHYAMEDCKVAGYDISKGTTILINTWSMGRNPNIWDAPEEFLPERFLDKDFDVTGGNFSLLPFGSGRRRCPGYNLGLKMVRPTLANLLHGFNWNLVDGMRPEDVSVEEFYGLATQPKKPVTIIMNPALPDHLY

CYP81Q1 = target: T2, CYP81Q1 (Sesamum indicum, UniProt Q33DY0); test: HPLC of products formed by yeast cells ([…] nm); assay type: cell-based; settings: CPR1 and CYP92B14 co-expressed, 48 h
T2 construct: full-length ORF expressed in yeast INVSc with sesame CPR1 (and CYP92B14); whole yeast cells
T2 sequence (Q33DY0 1-506): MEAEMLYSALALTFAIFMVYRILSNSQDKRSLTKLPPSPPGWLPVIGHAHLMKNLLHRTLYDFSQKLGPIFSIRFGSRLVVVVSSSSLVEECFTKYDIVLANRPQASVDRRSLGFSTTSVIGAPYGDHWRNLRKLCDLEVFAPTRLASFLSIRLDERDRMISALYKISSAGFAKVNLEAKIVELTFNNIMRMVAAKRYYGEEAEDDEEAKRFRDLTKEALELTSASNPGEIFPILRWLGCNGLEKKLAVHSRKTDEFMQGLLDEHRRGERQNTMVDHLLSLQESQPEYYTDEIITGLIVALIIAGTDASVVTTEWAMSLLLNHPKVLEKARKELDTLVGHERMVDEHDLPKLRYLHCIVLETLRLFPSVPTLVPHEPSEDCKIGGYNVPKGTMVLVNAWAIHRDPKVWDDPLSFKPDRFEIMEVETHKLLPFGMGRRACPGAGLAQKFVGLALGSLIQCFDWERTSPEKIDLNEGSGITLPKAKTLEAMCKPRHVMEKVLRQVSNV

CYP92B14 [2] = target: T1, CYP92B14; test: HPLC of products formed by yeast microsomes; assay type: biochemical; settings: 100 uM (+)-sesamin, 1 mM NADPH, CPR1 co-expressed, 37 °C, 60 min

OC1OC[C@@H]2[C@@H](c3ccc4c(c3)OCO4)OC[C@H]12 (single isomer, unassigned; (+)) [(+)-samin]
inhibition of (+)-sesamolin and (+)-sesaminol formation (CYP92B14 [1]): the supplementation of these two compounds clearly inhibited the biosynthetic activity of CYP92B14

COc1cc([C@H]2OC[C@H]3[C@@H]2CO[C@@H]3c2ccc(O)c(OC)c2)ccc1O [(+)-pinoresinol]
HPLC of products formed by yeast cells (283 nm) (CYP81Q1): co-expressing CYP81Q1, CYP92B14, and CPR1 converted (+)-pinoresinol to (+)-sesaminol and (+)-sesamolin via (+)-sesamin

c1cc2c(cc1[C@H]1OC[C@H]3[C@@H]1CO[C@@H]3c1ccc3c(c1)OCO3)OCO2 [(+)-sesamin]
HPLC of products formed by yeast microsomes (CYP92B14 [2]): yeast cells expressing CYP92B14 and CPR1 converted (+)-sesamin to (+)-sesamolin

c1cc2c(cc1O[C@H]1OC[C@H]3[C@@H]1CO[C@@H]3c1ccc3c(c1)OCO3)OCO2 [(+)-sesamolin]
HPLC of products formed by yeast microsomes (CYP92B14 [2]): yeast cells expressing CYP92B14 and CPR1 converted (+)-sesamin to (+)-sesamolin

Oc1ccc2c(c1)OCO2 [sesamol]
inhibition of (+)-sesamolin and (+)-sesaminol formation (CYP92B14 [1]): the supplementation of these two compounds clearly inhibited the biosynthetic activity of CYP92B14

Reference: PMC5735135, “Oxidative rearrangement of (+)-sesamin by CYP92B14 co-generates twin dietary lignans in sesame” (Nature Communications, 2017)
